Laboratory results: publication PMC4042160, “In silico, in vitro and cellular analysis with a kinome-wide inhibitor panel correlates cellular LRRK2 dephosphorylation to inhibitor activity on LRRK2” (Frontiers in Molecular Neuroscience, 2014)
Where “and” joins values, the source holds several entries; their conditions need not be identical. Equal entries are not always repeated. Where two headings read alike, the source gives them in different places.

Experiments:
[1] = target: T1, full length LRRK2 protein (Homo sapiens, UniProt Q5S007); assay: In vitro LRRKtide kinase assay with full length recombinant LRRK2, dose-response (IC50/pIC50); format: biochemical; conditions: for IC50: read-out: IC50 in vitro (lrrktide)
T1 construct: compounds were tested in triplicate with full length LRRK2 protein; made in house
T1 sequence (Q5S007 whole entry): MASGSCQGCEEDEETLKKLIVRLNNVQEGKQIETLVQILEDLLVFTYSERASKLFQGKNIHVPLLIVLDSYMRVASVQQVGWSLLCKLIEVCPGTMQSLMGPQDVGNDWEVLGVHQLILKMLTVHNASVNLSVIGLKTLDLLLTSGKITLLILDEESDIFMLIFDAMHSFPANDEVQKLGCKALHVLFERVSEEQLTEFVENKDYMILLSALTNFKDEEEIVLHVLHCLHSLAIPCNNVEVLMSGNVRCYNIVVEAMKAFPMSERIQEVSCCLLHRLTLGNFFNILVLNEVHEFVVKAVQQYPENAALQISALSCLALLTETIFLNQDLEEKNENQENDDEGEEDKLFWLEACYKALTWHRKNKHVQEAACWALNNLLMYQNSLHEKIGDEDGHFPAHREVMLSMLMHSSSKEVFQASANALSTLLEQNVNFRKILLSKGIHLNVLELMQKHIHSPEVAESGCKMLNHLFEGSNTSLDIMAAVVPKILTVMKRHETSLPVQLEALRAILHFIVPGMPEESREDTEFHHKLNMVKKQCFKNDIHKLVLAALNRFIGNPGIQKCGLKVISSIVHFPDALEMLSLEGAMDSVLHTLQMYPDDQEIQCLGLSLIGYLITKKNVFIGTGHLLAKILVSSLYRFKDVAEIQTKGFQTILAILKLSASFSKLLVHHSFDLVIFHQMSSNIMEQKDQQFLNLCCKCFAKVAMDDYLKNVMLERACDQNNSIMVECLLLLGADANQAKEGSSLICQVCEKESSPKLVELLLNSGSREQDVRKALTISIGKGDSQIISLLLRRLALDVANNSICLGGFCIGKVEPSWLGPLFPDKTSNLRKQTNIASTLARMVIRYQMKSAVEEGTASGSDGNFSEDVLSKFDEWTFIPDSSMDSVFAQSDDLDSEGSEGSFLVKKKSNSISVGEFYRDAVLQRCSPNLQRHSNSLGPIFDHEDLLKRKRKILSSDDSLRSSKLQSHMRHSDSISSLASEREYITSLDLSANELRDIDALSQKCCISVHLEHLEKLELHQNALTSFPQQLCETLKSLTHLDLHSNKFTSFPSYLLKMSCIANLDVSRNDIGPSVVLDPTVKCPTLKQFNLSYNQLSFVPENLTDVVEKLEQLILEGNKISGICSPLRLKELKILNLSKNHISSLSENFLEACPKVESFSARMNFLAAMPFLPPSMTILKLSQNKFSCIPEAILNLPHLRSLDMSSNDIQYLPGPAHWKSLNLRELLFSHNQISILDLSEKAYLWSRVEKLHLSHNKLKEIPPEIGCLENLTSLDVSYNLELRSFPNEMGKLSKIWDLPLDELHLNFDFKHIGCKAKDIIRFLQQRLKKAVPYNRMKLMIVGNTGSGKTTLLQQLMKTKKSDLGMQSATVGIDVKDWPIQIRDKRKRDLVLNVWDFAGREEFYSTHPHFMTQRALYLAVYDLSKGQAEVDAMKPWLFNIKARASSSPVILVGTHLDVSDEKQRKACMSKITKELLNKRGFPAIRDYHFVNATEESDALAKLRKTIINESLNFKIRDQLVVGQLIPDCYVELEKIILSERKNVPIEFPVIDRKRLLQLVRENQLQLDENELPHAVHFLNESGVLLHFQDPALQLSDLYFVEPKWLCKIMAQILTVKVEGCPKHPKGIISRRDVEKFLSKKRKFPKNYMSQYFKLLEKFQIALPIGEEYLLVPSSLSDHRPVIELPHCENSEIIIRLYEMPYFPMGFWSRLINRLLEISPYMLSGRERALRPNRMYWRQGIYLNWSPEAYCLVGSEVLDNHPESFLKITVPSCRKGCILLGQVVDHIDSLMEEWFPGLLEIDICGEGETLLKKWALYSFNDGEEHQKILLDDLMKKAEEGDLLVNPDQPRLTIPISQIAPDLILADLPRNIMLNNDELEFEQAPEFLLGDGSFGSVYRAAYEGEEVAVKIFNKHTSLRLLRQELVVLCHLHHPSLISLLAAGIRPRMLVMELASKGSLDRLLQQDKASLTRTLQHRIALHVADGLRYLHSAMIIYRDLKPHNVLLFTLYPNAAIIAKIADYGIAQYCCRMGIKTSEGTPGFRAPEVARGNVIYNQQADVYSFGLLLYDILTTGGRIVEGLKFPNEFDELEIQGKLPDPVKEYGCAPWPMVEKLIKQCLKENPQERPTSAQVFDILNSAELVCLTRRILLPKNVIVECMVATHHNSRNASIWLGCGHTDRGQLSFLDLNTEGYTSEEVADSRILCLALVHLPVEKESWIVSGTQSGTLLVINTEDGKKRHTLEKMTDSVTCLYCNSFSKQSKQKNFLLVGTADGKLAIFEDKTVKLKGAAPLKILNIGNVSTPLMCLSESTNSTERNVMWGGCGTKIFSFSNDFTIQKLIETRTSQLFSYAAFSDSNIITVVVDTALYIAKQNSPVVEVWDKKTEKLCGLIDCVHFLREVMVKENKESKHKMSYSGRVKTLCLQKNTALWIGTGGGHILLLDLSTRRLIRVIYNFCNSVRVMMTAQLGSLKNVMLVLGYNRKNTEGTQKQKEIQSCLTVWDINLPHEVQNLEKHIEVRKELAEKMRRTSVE

LRRK2 phospho-Ser935 = target: T2, LRRK2 phospho-Ser935 (Homo sapiens, UniProt Q5S007); assay: Cellular LRRK2 phosphoserine 935 dephosphorylation spotblot assay in SH-SY5Y cells stably expressing 3xFlag-LRRK2; format: cell-based; conditions: for IC50: read-out: IC50 cellular (pS935); for Phosphorylation level relative to solvent (%) (cellular pS935 assay): @ 5 μM for 2 h, SH-SY5Y stably expressing LRRK2, pS935/total LRRK2
T2 construct: expressed in transfected cells
T2 sequence (Q5S007 whole entry): as above

[2] = target: T3, GST-tagged truncated LRRK2 containing residues 970 to 2527 (Homo sapiens, UniProt Q5S007); assay: In vitro LRRKtide peptide-substrate kinase assay, single dose testing (10 μM); format: biochemical; conditions: for % LRRKtide phosphorylation relative to solvent: LRRKtide assay @ 10 μM inhibitor, GST-LRRK2 970-2527, 10 μM ATP, mean, N = 3, solvent control = 100%
T3 construct: GST-tagged truncated LRRK2 containing residues 970 to 2527 (Life Technologies); purchased Life Technologies
T3 sequence (Q5S007 970-2527): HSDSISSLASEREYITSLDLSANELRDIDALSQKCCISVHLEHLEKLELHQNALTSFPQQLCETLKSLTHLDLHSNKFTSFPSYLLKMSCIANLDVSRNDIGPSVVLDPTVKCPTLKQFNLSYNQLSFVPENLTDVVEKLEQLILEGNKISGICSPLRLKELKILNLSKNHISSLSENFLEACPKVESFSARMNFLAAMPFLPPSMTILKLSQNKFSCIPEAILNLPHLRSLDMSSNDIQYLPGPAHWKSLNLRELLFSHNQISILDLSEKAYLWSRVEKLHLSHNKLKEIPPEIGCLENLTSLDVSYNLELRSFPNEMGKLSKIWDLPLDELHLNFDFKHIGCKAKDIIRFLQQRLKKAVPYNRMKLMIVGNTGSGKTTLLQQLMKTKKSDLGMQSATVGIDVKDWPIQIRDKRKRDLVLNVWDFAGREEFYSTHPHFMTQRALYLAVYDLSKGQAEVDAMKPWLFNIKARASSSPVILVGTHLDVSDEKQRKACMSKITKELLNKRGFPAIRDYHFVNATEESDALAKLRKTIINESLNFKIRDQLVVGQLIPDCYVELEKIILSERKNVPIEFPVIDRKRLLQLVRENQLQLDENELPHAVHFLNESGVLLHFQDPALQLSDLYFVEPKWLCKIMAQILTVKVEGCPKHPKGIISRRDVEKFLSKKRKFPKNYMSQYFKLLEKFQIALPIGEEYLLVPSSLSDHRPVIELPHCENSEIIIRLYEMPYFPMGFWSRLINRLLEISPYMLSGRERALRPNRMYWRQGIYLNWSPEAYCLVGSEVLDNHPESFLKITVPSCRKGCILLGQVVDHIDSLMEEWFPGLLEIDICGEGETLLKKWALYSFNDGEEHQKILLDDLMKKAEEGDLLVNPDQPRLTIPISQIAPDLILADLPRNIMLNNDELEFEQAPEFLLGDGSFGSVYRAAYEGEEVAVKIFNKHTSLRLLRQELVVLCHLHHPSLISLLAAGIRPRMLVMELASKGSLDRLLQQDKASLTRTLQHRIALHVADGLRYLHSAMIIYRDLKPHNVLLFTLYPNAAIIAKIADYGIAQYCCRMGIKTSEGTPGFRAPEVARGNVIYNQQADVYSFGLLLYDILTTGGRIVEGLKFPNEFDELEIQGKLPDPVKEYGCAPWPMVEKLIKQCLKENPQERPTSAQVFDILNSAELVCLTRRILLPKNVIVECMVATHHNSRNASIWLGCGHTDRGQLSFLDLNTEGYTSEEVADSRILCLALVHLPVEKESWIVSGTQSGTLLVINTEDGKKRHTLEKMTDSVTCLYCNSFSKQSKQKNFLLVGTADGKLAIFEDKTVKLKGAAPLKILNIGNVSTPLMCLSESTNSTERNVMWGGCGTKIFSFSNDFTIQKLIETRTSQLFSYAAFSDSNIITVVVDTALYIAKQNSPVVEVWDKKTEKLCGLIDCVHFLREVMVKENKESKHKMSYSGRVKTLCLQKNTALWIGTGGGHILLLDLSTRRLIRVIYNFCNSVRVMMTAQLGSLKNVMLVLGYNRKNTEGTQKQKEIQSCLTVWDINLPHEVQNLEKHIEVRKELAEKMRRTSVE

[3] = LRRKtide phosphorylation, dose-response
[4] = pS935 level as % of control, 5 μM for 2 h, SH-SY5Y cells with stable expression of LRRK2
[5] = pS935 dephosphorylation, SH-SY5Y cells with stable expression of LRRK2

Row | Compound | IC50 [1, 3] [nM] | Cellular pS935 (% @ 5 μM) (LRRK2 phospho-Ser935; [4]) [%] | % LRRKtide phosphorylation relative to solvent [2] | Phosphorylation level relative to solvent (%) (cellular pS935 assay) (LRRK2 phospho-Ser935) | other results
1 | COc1cc(C(=O)N2CCC(N3CCN(C)CC3)CC2)ccc1Nc1ncc2c(n1)N(C)c1ccccc1C(=O)N2C [LRRK2 IN1] | – | – | – | – | pIC50 in vitro (lrrktide) [1]: 8.45; IC50 [1]: 3.54 nM; Cellular pS935 (% @ 5 μM) (LRRK2 phospho-Ser935): 9.32%; pIC50 cellular (pS935) (LRRK2 phospho-Ser935): 6.55; IC50 (LRRK2 phospho-Ser935): 280 nM
2 | COc1cc2ncnc(Nc3ccc(Oc4ccccc4)cc3)c2cc1OC [Src kinase inhibitor I] | 936 | 61.51 | 27.12% | 61.51 | pIC50 in vitro (lrrktide) [1, 3]: 6.03
3 | CCCNC(=O)Nc1ccc(Oc2ncnc3cc(OC)c(OC)cc23)cc1Cl | > 10000 | 62.48 | – | – | pIC50 in vitro (lrrktide) [1, 3]: <5
4 | CC(C)[C@H](CO)Nc1nc(Nc2cccc(Cl)c2)c2ncn(C(C)C)c2n1 [Purvalanol A] | 4570 | 121.26 | 15.64% | 121.26 | –
5 | COc1cc2ncnc(N3CCN(C(=O)Nc4ccc(Oc5ccccc5)cc4)CC3)c2cc1OC [PDGF receptor tyrosine kinase inhibitor III] | > 10000 | 72.83 | 55.86% | 72.83 | pIC50 in vitro (lrrktide) [1, 3]: <5
6 | CN(C)c1ccc(/C=C2\C(=O)Nc3ccccc32)cc1 [DMBI] | 1480 | 54.34 | 19.33% | 54.34 | pIC50 in vitro (lrrktide) [1, 3]: 5.83
7 | CC(C)(C)c1cc(C=C(C#N)C#N)cc(Br)c1O [AG 1024] | – | – | 51.38% | 94.37 | –
8 | CC(C)c1nn(-c2c(Cl)cccc2Cl)c2nc(Cc3ccc(OCCO)cc3)[nH]c(=O)c12 [Cdk/Crk inhibitor] | – | – | 54.91% | 97.11 | –
9 | COc1ccc(Cl)cc1NC(=O)Nc1cc(C)nc2ccccc12 [IGF-1R inhibitor II] | – | – | 93.23% | 80.40 | –
10 | Oc1ccc(Nc2nc(-c3ccc(Cl)cc3)cs2)cc1 [Sphingosine kinase inhibitor] | – | – | 106.21% | 144.00 | –
11 | cFMS receptor tyrosine kinase inhibitor | – | – | 110.22% | 60.62 | –
12 | Nc1[nH]nc2nnc(-c3c(-c4ccccc4)nn4ccccc34)cc12 [ERK inhibitor II, FR180204, FR180204] | – | – | 14.06% | 65.88 | –
13 | CC#CC(=O)Nc1cc2c(Nc3ccc(F)c(Cl)c3)ncnc2cn1 [EGFR/ErbB-2/ErbB-4 inhibitor] | – | – | 81.86% | 69.18 | –
14 | C[S+]([O-])c1ccc(-c2nc(-c3ccncc3)c(-c3ccc(F)cc3)[nH]2)cc1 (centres unmarked) [SB 203580] | – | – | 100.48% | 90.32 | –
15 | CCN1/C(=C/C(C)=O)Sc2ccc(OC)cc21 [Cdc2-like kinase inhibitor, TG003, TG003] | – | – | 37.41% | 81.30 | –
16 | O=c1c(-c2ccc(F)cc2)c(-c2ccncc2)[nH]n1-c1ccc(Cl)cc1 [p38 MAP kinase inhibitor] | – | – | 132.68% | 93.68 | –
17 | Fc1ccc(-c2nc3n(c2-c2ccncc2)CCS3)cc1 [SKF-86002] | – | – | 94.81% | 121.09 | –
18 | CC(C)(C)c1nc2c3cc[nH]c(=O)c3c3cc(F)ccc3c2[nH]1 [JAK inhibitor I] | – | – | 3.20% | 47.17 | –
19 | CCn1cnc2c(Nc3cccc(Cl)c3)nc(N[C@H]3CCCC[C@H]3N)nc21 [Cdk1 inhibitor. CGP74514A] | 3470 | 83.35 | – | – | pIC50 in vitro (lrrktide) [1, 3]: 5.46
20 | COc1cc(N2CCOCC2)ccc1Nc1ncc(F)c(Nc2ccccc2NS(C)(=O)=O)n1 [CZC25146] | 1.78 | 8.62 | – | – | pIC50 in vitro (lrrktide) [1, 3]: 8.75; pIC50 cellular (pS935) (LRRK2 phospho-Ser935; [5]): 7.36; IC50 (LRRK2 phospho-Ser935; [5]): 43.6 nM
21 | CC(C)N(CCC(=O)c1ccc2ccccc2c1)Cc1ccccc1 [JAK3 inhibitor IV] | – | – | 90.96% | 63.71 | –

Second part, led by results:

Row | IC50 [1, 3] [nM] | Cellular pS935 (% @ 5 μM) (LRRK2 phospho-Ser935; [4]) [%] | % LRRKtide phosphorylation relative to solvent [2] | Phosphorylation level relative to solvent (%) (cellular pS935 assay) (LRRK2 phospho-Ser935) | Compound | other results
22 | 632 | 57.29 | – | – | Syk inhibitor | pIC50 in vitro (lrrktide) [1, 3]: 6.20
23 | 0.91 | 13.15 | 0.73% | 13.15 | Nc1nc(Nc2ccc(S(N)(=O)=O)cc2)nn1C(=S)Nc1c(F)cccc1F [Cdk1/2 inhibitor III] | pIC50 in vitro (lrrktide) [1, 3]: 9.04; pIC50 cellular (pS935) (LRRK2 phospho-Ser935; [5]): 8.93; IC50 (LRRK2 phospho-Ser935; [5]): 1.18 nM
24 | > 10000 | 78.35 | 29.84% | 78.35 | O=C1Nc2ccccc2/C1=C\c1c(Cl)[nH]c2ccccc12 [Cdk1 inhibitor] | pIC50 in vitro (lrrktide) [1, 3]: <5
25 | > 10000 | 67.43 | 68.24% | 67.43 | COc1cc2ncnc(Nc3ccc(OCc4ccccc4)cc3)c2cc1OC [EGFR/ErbB-2 inhibitor] | pIC50 in vitro (lrrktide) [1, 3]: <5
26 | 2100 | 94.62 | 2.99% | 94.62 | COc1ccc2c(c1)/C(=C/c1cnc[nH]1)C(=O)N2 [SU9516] | –
27 | 1200 | 63.02 | 1.86% | 63.02 | COc1cc2ncnc(Nc3ccc(O)c(Br)c3)c2cc1OC [JAK3 inhibitor II] | –
28 | – | – | 17.20% | 84.73 | CN([C@@H](Cc1ccc(OS(=O)(=O)c2cccc3cnccc23)cc1)C(=O)N1CCN(c2ccccc2)CC1)S(=O)(=O)c1cccc2cnccc12 [KN-62] | –
29 | 1790 | 85.53 | – | – | O=C1Nc2ccccc2/C1=C1/Nc2ccccc2/C1=N\O [Indirubin-3'-monoxime] | pIC50 in vitro (lrrktide) [1, 3]: 5.75
30 | – | – | 55.04% | 102.54 | N#Cc1cnc2cnc(NCc3cccnc3)cc2c1Nc1ccc(F)c(Cl)c1 [Tpl2 kinase inhibitor] | –
31 | – | – | 64.37% | 57.76 | O=C(Nc1cccc(Nc2cc(Nc3cccc(C(F)(F)F)c3)ncn2)c1)C1CC1 [EGFR inhibitor] | –
32 | – | – | 3.50% | 76.71 | NCCNc1ncc(C(N)=O)c(Nc2cccc(C(F)(F)F)c2)n1 [Syk inhibitor II] | –
33 | – | – | 83.96% and 44.16% | – | O=C(Nc1cccc(Nc2nccc(Nc3cccc(C(F)(F)F)c3)n2)c1)C1CC1 [Aurora kinase inhibitor III] | activity on LRRK2 kinase activity in vitro (in words) ([2]; no activity at 10 μM): inactive; dephosphorylation of LRRK2 (Ser935) (LRRK2 phospho-Ser935; 5 μM, 2 h, SH-SY5Y): ~ 50%
34 | – | – | 26.80% | 48.63 | Cc1ccc(NC2=CC(=O)c3sc(C)nc3C2=O)cc1 [Cdk4 inhibitor III] | –
35 | – | – | 32.15% | 63.04 | c1ccc2c(-c3ccncc3)c[nH]c2c1 [Rho kinase inhibitor III, rockout, rockout] | –
36 | – | – | 11.18% | 85.53 | Indirubin-3′-monoxime | –
37 | – | – | 97.07% | 77.12 | O=c1[nH][nH]c2nnc(-c3c(-c4ccccc4)nn4ccccc34)cc12 [ERK inhibitor II, negative control] | –
38 | 297 | 72.69 | – | – | PKR inhibitor. negative control | pIC50 in vitro (lrrktide) [1, 3]: 6.53
39 | – | – | 3.04% | 70.11 | COc1ccc2c(c1)c(C1=C(c3c[nH]c4ccccc34)C(=O)NC1=O)cn2CCCN(C)C [Gö 6983] | –
40 | – | – | 17.45% | 109.11 | CCCCc1c(-c2ccc(OC)cc2)[nH]c2nccnc12 [Aloisine, RP106] | –
41 | – | – | 67.41% | 56.68 | O=C1NC(=O)c2cc(Nc3ccc(F)cc3)c(Nc3ccc(F)cc3)cc21 [PKCbII/EGFR inhibitor] | –
42 | – | – | 76.06% | 70.36 | COc1ccc(OC)c2c(=S)c3ccccc3[nH]c12 [Cdk4 inhibitor II, 625987, NSC 625987] | –
